# According to patent publication US20240254143A1, “OREXIN RECEPTOR AGONISTS AND USES THEREOF” (JAZZ PHARMACEUTICALS IRELAND LIMITED, priority 2021, published 2024):
# Biological target: T1, human recombinant OX2 (hOX2) receptor (Homo sapiens, UniProt O43614)
# T1 construct: host or cells: CHO cells
# T1 sequence (O43614 1-444): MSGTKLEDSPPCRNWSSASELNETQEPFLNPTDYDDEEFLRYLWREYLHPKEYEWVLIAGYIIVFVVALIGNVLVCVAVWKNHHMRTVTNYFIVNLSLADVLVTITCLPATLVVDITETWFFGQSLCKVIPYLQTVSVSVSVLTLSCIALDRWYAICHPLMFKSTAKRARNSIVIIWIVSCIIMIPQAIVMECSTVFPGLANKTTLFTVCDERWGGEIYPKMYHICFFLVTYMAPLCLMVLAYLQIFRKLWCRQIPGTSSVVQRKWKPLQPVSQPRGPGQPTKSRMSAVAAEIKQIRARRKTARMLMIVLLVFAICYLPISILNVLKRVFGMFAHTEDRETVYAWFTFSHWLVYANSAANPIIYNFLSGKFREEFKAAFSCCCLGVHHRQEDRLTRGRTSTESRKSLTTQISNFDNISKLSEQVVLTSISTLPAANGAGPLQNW
# Assay: IP-1 accumulation assay (IP-One HTRF) in hOX2-CHO cells
# Assay type: cell-based
# Conditions: 60 min at 37° C., mean of at least two independent experiments, read-out: EC50_OX2R Category
# Method: Example 94: IP-1 Accumulation Assay
# The accumulation of Inositol-1 Monophosphate (IP-1) was measured using IP-One HTRF® Terbium cryptate based assay (Cisbio) in human recombinant OX1 (hOX1) and at OX2 (hOX2) receptors expressed in CHO cells (DiscoverX) according to the manufacturer's instructions for cells tested in suspension.
# hOX1-CHO and hOX2-CHO cells were seeded into white 384-well plates at a density of 20,000 cells/well in Hank's Balanced Salt Solution (HBSS) containing 20 mM HEPES pH 7.4, 50 mM, LiCl and 0.1% and Bovine Serum Albumin (BSA).
# Compounds of the present disclosure were tested in a 11 points concentration response curve (CRC) serially diluted in neat DMSO at 200 fold concentrations and added by Echo acoustic liquid handling (Labcyte) to the cells (0.5% DMSO final in the assay). After 60 min of incubation at 37° C. detection reagents, IP1-d2 tracer and anti-IP1-cryptate were diluted in lysis buffer according to the manufacturer's descriptions and added to the cells.
# Following 60 mi incubation at room temperature, time-resolved fluorescence (HTRF) was measured at 615 nm and 665 nm by Envision Multilabel reader (Perkin Elmer) and the HTRF ratio (A665/A615×10^4) was calculated.
# The IP-1 accumulation response was expressed as percentage of the maximal OX-A response.
# Curve fitting and EC50 estimations were carried out using a four-parameter logistic model using XLfit Software. Mean data of EC50 are calculated from at least two independent experiments performed in duplicates.
row,Compound,EC50 [nM]
1,"CCNC(=O)N1CCC[C@@]2(CCOC(=O)N2)[C@@H]1Cc1cccc(-c2ccccc2)c1 (racemic) [Example 24, (CIS)-7-({[1,1′-biphenyl]-3-yl}methyl)-N-ethyl-2-oxo-3-oxa-1,8-diazaspiro[5.5]undecane-8-carboxamide]",1000 to 10000
2,"COC(=O)N1CCC[C@@]2(CCOC(=O)N2)[C@@H]1Cc1cccc(-c2ccccc2)c1 (single isomer, unassigned) [Example 21]",> 10000
3,"CCNC(=O)N1CCC[C@]2(COC(C)C(=O)N2)[C@H]1CO[C@H]1CC[C@@H](c2ccccc2)CC1 (single isomer, unassigned) [Example 39]",> 10000
4,"O=C1N[C@@]2(CCN(C(=O)OCC(F)F)[C@@H]2Cc2cccc(-c3cc(F)cc(F)c3)c2F)COC1F (single isomer, unassigned) [Example 75]",> 10000
5,"O=C1COC[C@]2(CCN(C(=O)[C@H]3C[C@@H](F)C3)[C@@H]2Cc2cccc(-c3cc(F)cc(F)c3)c2F)N1 (single isomer, unassigned) [Example 73]",> 10000
6,"CCNC(=O)N1CCC[C@]2(CCOC(=O)N2)[C@H]1CO[C@H]1CC[C@@H](c2ccccc2)CC1 (single isomer, unassigned) [Example 13]",> 10000
7,"CCNC(=O)N1CCC[C@@]2(CNS(=O)(=O)N2)[C@@H]1Cc1cccc(-c2ccccc2)c1 (racemic) [Example 30, (CIS)-6-({[1,1′-biphenyl]-3-yl}methyl)-N-ethyl-2,2-dioxo-2λ^6-thia-1,3,7-triazaspiro[4.5]decane-7-carboxamide]",> 10000
8,"CCNC(=O)N1CCCC2(CCOC(=O)N2)C1CO[C@H]1CC[C@@H](c2ccccc2)CC1 (stereo partly drawn) [Example 12, (Trans)-N-ethyl-2-oxo-7-({[(CIS)-4-phenylcyclohexyl]oxy}methyl)-3-oxa-1,8-diazaspiro[5.5]undecane-8-carboxamide]",1000 to 10000
9,"O=C1COCC2(CCCN(C(=O)OCC(F)F)C2COC2CCN(c3ncc(F)cn3)CC2)N1 (racemic) [Example 77, 2,2-difluoroethyl-rel-(6S,7R)-7-({[1-(5-fluoropyrimidin-2-yl)piperidin-4-yl]oxy}methyl)-2-oxo-4-oxa-1,8-diazaspiro[5.5]undecane-8-carboxylate]",1000 to 10000
10,"CCNC(=O)N1CCC[C@]2(CCOC(=O)N2)[C@H]1Cc1cccc(-c2ccccc2)c1 [Example 26, (6S,7R)-7-({[1,1′-biphenyl]-3-yl}methyl)-N-ethyl-2-oxo-3-oxa-1,8-diazaspiro[5.5]undecane-8-carboxamide]",> 10000
11,"C[C@@H]1C[C@@]2(COCC(=O)N2)[C@H](CO[C@H]2CC[C@@H](c3ccccc3)CC2)N1C(=O)C(C)(C)O [Example 49, (1R,3R,5S)-2-(2-hydroxy-2-methylpropanoyl)-3-methyl-1-({[(CIS)-4-phenylcyclohexyl]oxy}methyl)-9-oxa-2,6-diazaspiro[4.5]decan-7-one]",1000 to 10000
12,"COC(=O)N1CCC[C@@]2(COC(=O)N2)[C@@H]1Cc1cccc(-c2ccccc2)c1 [Example 29, Methyl (5S,6S)-6-({[1,1′-biphenyl]-3-yl}methyl)-2-oxo-3-oxa-1,7-diazaspiro[4.5]decane-7-carboxylate]",> 10000
13,"CCNC(=O)N1CC[C@]2(COCC(=O)N2)[C@H]1CO[C@H]1CC[C@@H](c2ccccc2)CC1 (single isomer, unassigned) [Example 17]",> 10000
14,"CCNC(=O)N1CCC(F)(F)[C@]2(CCOC(=O)N2)[C@H]1CO[C@H]1CC[C@@H](c2ccccc2)CC1 (single isomer, unassigned) [Example 46]",> 10000

# Next, values leading:
row,EC50 [nM],Compound
1,100 to 1000,"CCNC(=O)N1CCCC2(COCC(=O)N2)C1COC1CCN(c2ncc(F)cn2)CC1 (racemic) [Example 76, rel-(6S,7R)-N-ethyl-7-({[1-(5-fluoropyrimidin-2-yl)piperidin-4-yl]oxy}methyl)-2-oxo-4-oxa-1,8-diazaspiro[5.5]undecane-8-carboxamide]"
2,100 to 1000,"O=C1NC2(CCCN(C(=O)OCC(F)F)C2CO[C@H]2CC[C@@H](c3ccccc3)CC2)CCO1 (mixture of isomers) [Example 65, 2,2-difluoroethyl-rel-(6R,7R)-2-oxo-7-({[(CIS)-4-phenylcyclohexyl]oxy}methyl)-3-oxa-1,8-diazaspiro[5.5] undecane-8-carboxylate]"
3,< 100,"C[C@@H]1C[C@@]2(COCC(=O)N2)[C@H](CO[C@H]2CC[C@@H](c3ccccc3)CC2)N1C(=O)[C@H]1C[C@@H](F)C1 [Example 59, (1R,3R,5S)-3-methyl-2-[(1s,3s)-3-fluorocyclobutanecarbonyl]-1-({[(CIS)-4-phenylcyclohexyl]oxy}methyl)-9-oxa-2,6-diazaspiro[4.5]decan-7-one]"
4,100 to 1000,"CCNC(=O)N1CC[C@@]2(COCC(=O)N2)[C@@H]1CO[C@H]1CC[C@@H](c2ccccc2)CC1 (single isomer, unassigned) [Example 16]"
5,100 to 1000,"O=C1COC[C@@]2(CCN(C(=O)[C@H]3C[C@@H](F)C3)[C@H]2Cc2cccc(-c3cc(F)cc(F)c3)c2F)N1 (single isomer, unassigned) [Example 72]"
6,< 100,"CCNC(=O)N1CCC(F)(F)[C@@]2(CCOC(=O)N2)[C@@H]1CO[C@H]1CC[C@@H](c2ccccc2)CC1 (single isomer, unassigned) [Example 45]"
7,< 100,"CCNC(=O)N1CCCC2(COCC(=O)N2)C1CO[C@H]1CC[C@@H](c2ccccc2)CC1 (mixture of isomers) [Example 1, (CIS)-N-ethyl-2-oxo-7-({[(CIS)-4-phenylcyclohexyl]oxy}methyl)-4-oxa-1,8-diazaspiro[5.5]undecane-8-carboxamide]"
8,100 to 1000,"CCNC(=O)N1CCC[C@@]2(CCOC(=O)N2)[C@@H]1Cc1cccc(-c2ccccc2)c1 [Example 27, (6R,7S)-7-({[1,1′-biphenyl]-3-yl}methyl)-N-ethyl-2-oxo-3-oxa-1,8-diazaspiro[5.5]undecane-8-carboxamide]"
9,100 to 1000,"CN1CC(=O)NC2(CCCN(C(=O)OCC(F)F)C2CO[C@H]2CC[C@@H](c3ccccc3)CC2)C1 (mixture of isomers) [Example 56, 2,2-difluoroethyl-rel-(6R,7R)-4-methyl-2-oxo-7-({[(CIS)-4-phenylcyclohexyl]oxy}methyl)-1,4,8-triazaspiro [5.5]undecane-8-carboxylate]"
10,100 to 1000,"O=C1COCC2(CCCN(C(=O)[C@H]3C[C@@H](F)C3)C2COC2CCN(c3ncc(F)cn3)CC2)N1 (mixture of isomers) [Example 78, rel-(6S,7R)-8-(3-fluorocyclobutanecarbonyl)-7-({[1-(5-fluoropyrimidin-2-yl)piperidin-4-yl]oxy}methyl)-4-oxa-1,8-diazaspiro[5.5]undecan-2-one]"
11,100 to 1000,"C[C@@H]1C[C@@]2(COCC(=O)N2)[C@H](Cc2cccc(-c3cc(F)cc(F)c3)c2F)N1C(=O)[C@H]1CCO1 [Example 89, (1S,3R,5S)-3-methyl-2-[(2R)-oxetane-2-carbonyl]-1-({2,3′,5′-trifluoro-[1,1′-biphenyl]-3-yl}methyl)-9-oxa-2,6-diazaspiro[4.5]decan-7-one]"
12,< 100,"CCNC(=O)N1CCC[C@@]2(CCCC(=O)N2)[C@@H]1CO[C@H]1CC[C@@H](c2ccccc2)CC1 (single isomer, unassigned) [Example 35]"
13,100 to 1000,"COc1cccnc1N1[C@H](C)C[C@@]2(COCC(=O)N2)[C@@H]1CO[C@H]1CC[C@@H](c2ccccc2)CC1 [Example 63, (1R,3R,5S)-2-(3-methoxypyridin-2-yl)-3-methyl-1-({[(CIS)-4-phenylcyclohexyl]oxy}methyl)-9-oxa-2,6-diazaspiro[4.5]decan-7-one]"
14,< 100,"C[C@@H]1C[C@@]2(COCC(=O)N2)[C@H](CO[C@H]2CC[C@@H](c3ccccc3)CC2)N1C(=O)NCC(F)(F)F [Example 62, (1R,3R,5S)-3-methyl-7-oxo-1-({[(CIS)-4-phenylcyclohexyl]oxy}methyl)-N-(2,2,2-trifluoroethyl)-9-oxa-2,6-diazaspiro[4.5]decane-2-carboxamide]"
15,100 to 1000,"CCNC(=O)N1CCCC2(COCCS(=O)(=O)N2)C1CO[C@H]1CC[C@@H](c2ccccc2)CC1 (mixture of isomers) [Example 38, rel-(1R,6S)-N-ethyl-8,8-dioxo-1-({[(CIS)-4-phenylcyclohexyl]oxy}methyl)-11-oxa-8λ^6-thia-2,7-diazaspiro[5.6]dodecane-2-carboxamide]"
16,100 to 1000,"CCNC(=O)N1CCCC2(CCCS(=O)(=O)N2)C1CO[C@H]1CC[C@@H](c2ccccc2)CC1 (mixture of isomers) [Example 37, rel-(6R,7R)-N-ethyl-2,2-dioxo-7-({[(CIS)-4-phenylcyclohexyl]oxy}methyl)-2λ^6-thia-1,8-diazaspiro[5.5] undecane-8-carboxamide]"
